Calls of active or inactive are those of the source. The calls are words filed in the database; no cut-off is given here.
Tests used:
[1] = target: ELAV-like protein 1 (Homo sapiens) (UniProt Q15717); assay: Binding affinity to HuR (unknown origin) assessed as negative STD factor by measuring interaction of protons 3, 9-10 and 16 with protein at 400 uM in 100% D2O buffer by DEEP-STD NMR analysis
[2] = target: ELAV-like protein 1 (Homo sapiens) (UniProt Q15717); assay: Binding affinity to HuR (unknown origin) assessed as interaction of ring A and protons 16 with hydrophobic residues and projection of ring B and its methoxy group with polar residues of protein at 400 uM in H2O:D2O (90:10) buffer by DEEP-STD NMR analysis
[3] = target: ELAV-like protein 1 (Homo sapiens) (UniProt Q15717); assay: Binding affinity to HuR (unknown origin) assessed as positive STD factor by measuring interaction of protons of ring B and its methoxy group with protein at 400 uM in 100% D2O buffer by DEEP-STD NMR analysis
[4] = target: ELAV-like protein 1 (Homo sapiens) (UniProt Q15717); assay: Binding affinity to HuR (unknown origin) assessed as interaction of ring A and protons 5 and 3 with apolar residues and projection of protons 16 and 9-10 with polar residues of protein at 400 uM in H2O:D2O (90:10) buffer by DEEP-STD NMR analysis

ELAV-like protein 1 (Homo sapiens), sequence (Q15717 whole entry): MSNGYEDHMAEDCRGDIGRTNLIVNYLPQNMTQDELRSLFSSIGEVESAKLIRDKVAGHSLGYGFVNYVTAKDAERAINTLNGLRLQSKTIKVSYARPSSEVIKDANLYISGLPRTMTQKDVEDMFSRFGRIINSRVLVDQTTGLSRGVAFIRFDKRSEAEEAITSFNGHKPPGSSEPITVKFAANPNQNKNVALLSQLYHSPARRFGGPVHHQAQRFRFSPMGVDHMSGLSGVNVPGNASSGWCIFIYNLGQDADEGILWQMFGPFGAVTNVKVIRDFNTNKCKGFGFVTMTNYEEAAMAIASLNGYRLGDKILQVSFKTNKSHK

## COc1cc(OC)cc([C@H]2[C@H](C(=O)NCCNCc3ccccc3)CCC(=O)N2CC(C)C)c1
[1]
  Activity: Active
[2]
  Activity: Active

## COc1cc(OC)cc([C@@H]2[C@@H](C(=O)NCCNCc3ccccc3)CCC(=O)N2CC(C)C)c1
[3]
  Activity: Active
[4]
  Activity: Active

Reference: ChEMBL document CHEMBL4613306, “BOPC1 Enantiomers Preparation and HuR Interaction Study. From Molecular Modeling to a Curious DEEP-STD NMR Application” (ACS Med Chem Lett, 2020)
